Data from patent publication US12421282B2, “Compositions and methods for the treatment of metabolic and liver disorders” (priority 2021, dated 2025).
Where two headings read alike, the source gives them in different places. *1 amine or outer side, *2 acyl side, *3 side chain or, on linkers, in order; H or OH if unused. Where a SMILES comes first, the peptide text is derived from it. Side-chain parts run from the residue outwards. [ ]: non-standard residue; d: D form. The star is where a group is joined. Nonadecanoyl(19-PO3H2) = O=C(CCCCCCCCCCCCCCCCCCP(=O)(O)O)*; γGlu = O=C(O)[C@H](CCC(=O)[*:2])N[*:1]; AEEA = NCCOCCOCC(=O)O; Aib = CC(C)(N)C(=O)O

Parameters: species or system cynomolgus monkeys
Settings: cynomolgus monkey, in vivo
Experimental: Subcutaneous (SC) dosing of the compounds in a vehicle of 0.1% bovine serum albumin in phosphate buffered saline solution was performed with male cynomolgus monkeys. […] Samples were obtained at 1, 4, 8, 12, 24, 48, 72, 96, 120, 168, 192, 240 and 336 hours after the single dose was administered.

Row | SMILES | AUC(0-inf) (sc, 0.2 mg/kg) | AUC(0-t) (sc, 0.2 mg/kg) | Cmax (sc, 0.2 mg/kg) | Tmax (sc, 0.2 mg/kg) | half-life (sc, 0.2 mg/kg) | mean half life as compared to tirzepatide (in words) (sc, 0.2 mg/kg) | mean half life longer compared to tirzepatide (sc, 0.2 mg/kg) | AUC(0-inf) | AUC(0-t) | Cmax | Tmax | half-life
1 | CC[C@H](C)[C@H](NC(=O)[C@H](CC(C)C)NC(=O)[C@H](Cc1c[nH]c2ccccc12)NC(=O)[C@H](CCC(N)=O)NC(=O)[C@@H](NC(=O)[C@H](Cc1ccccc1)NC(=O)[C@H](C)NC(=O)[C@H](CCCCNC(=O)COCCOCCNC(=O)COCCOCCNC(=O)CC[C@H](NC(=O)CCCCCCCCCCCCCCCCCCP(=O)(O)O)C(=O)O)NC(=O)[C@H](CCC(N)=O)NC(=O)[C@H](C)NC(=O)[C@@H](NC(=O)[C@H](CCCNC(=N)N)NC(=O)[C@H](CC(=O)O)NC(=O)[C@H](CC(C)C)NC(=O)C(C)(C)NC(=O)[C@@H](NC(=O)[C@H](CO)NC(=O)[C@H](Cc1ccc(O)cc1)NC(=O)[C@H](CC(=O)O)NC(=O)[C@H](CO)NC(=O)[C@@H](NC(=O)[C@H](Cc1ccccc1)NC(=O)[C@@H](NC(=O)CNC(=O)[C@H](CCC(=O)O)NC(=O)C(C)(C)NC(=O)[C@@H](N)Cc1ccc(O)cc1)[C@@H](C)O)[C@@H](C)O)[C@@H](C)CC)[C@@H](C)CC)C(C)C)C(=O)N[C@@H](C)C(=O)NCC(=O)NCC(=O)N1CCC[C@H]1C(=O)N[C@@H](CO)C(=O)N[C@@H](CO)C(=O)NCC(=O)N[C@@H](C)C(=O)N1CCC[C@H]1C(=O)N1CCC[C@H]1C(=O)N1CCC[C@H]1C(=O)N[C@@H](CO)C(N)=O [Compound 16] (H-Y[Aib]EGTFTSDYSI[Aib]LDRIAQK([AEEA-AEEA-γGlu-Nonadecanoyl(19-PO3H2)])AFVQWLIAGGPSSGAPPPS-NH2) | 144 µg·h/mL | 138 µg·h/mL | 1570 ng/mL | 9.33 h | 70.1 h | – | – | – | – | – | – | –
2 | CC[C@H](C)[C@H](NC(=O)[C@H](CC(C)C)NC(=O)[C@H](Cc1c[nH]c2ccccc12)NC(=O)[C@H](CC(N)=O)NC(=O)[C@@H](NC(=O)[C@H](Cc1ccccc1)NC(=O)[C@H](C)NC(=O)[C@H](CCC(N)=O)NC(=O)[C@H](CCCCNC(=O)COCCOCCNC(=O)COCCOCCNC(=O)CC[C@H](NC(=O)CCCCCCCCCCCCCCCCCCP(=O)(O)O)C(=O)O)NC(=O)[C@H](C)NC(=O)[C@@H](NC(=O)[C@H](CCCCN)NC(=O)[C@H](CC(=O)O)NC(=O)[C@H](CC(C)C)NC(=O)C(C)(C)NC(=O)[C@@H](NC(=O)[C@H](CO)NC(=O)[C@H](Cc1ccc(O)cc1)NC(=O)[C@H](CC(=O)O)NC(=O)[C@H](CO)NC(=O)[C@@H](NC(=O)[C@H](Cc1ccccc1)NC(=O)[C@@H](NC(=O)CNC(=O)[C@H](CCC(=O)O)NC(=O)C(C)(C)NC(=O)[C@@H](N)Cc1ccc(O)cc1)[C@@H](C)O)[C@@H](C)O)[C@@H](C)CC)[C@@H](C)CC)C(C)C)C(=O)N[C@@H](C)C(=O)NCC(=O)NCC(=O)N1CCC[C@H]1C(=O)N[C@@H](CO)C(=O)N[C@@H](CO)C(=O)NCC(=O)N[C@@H](C)C(=O)N1CCC[C@H]1C(=O)N1CCC[C@H]1C(=O)N1CCC[C@H]1C(=O)N[C@@H](CO)C(N)=O [Compound 22] (H-Y[Aib]EGTFTSDYSI[Aib]LDKIAK([AEEA-AEEA-γGlu-Nonadecanoyl(19-PO3H2)])QAFVNWLIAGGPSSGAPPPS-NH2) | 510 µg·h/mL | 417 µg·h/mL | 2380 ng/mL | 33.3 h | 137 h | more than twice an long as compared to tirzepatide | at least 50% | – | – | – | – | –
3 | CC[C@H](C)[C@H](NC(=O)[C@H](CC(C)C)NC(=O)[C@H](Cc1c[nH]c2ccccc12)NC(=O)[C@H](CCC(N)=O)NC(=O)[C@@H](NC(=O)[C@H](Cc1ccccc1)NC(=O)[C@H](C)NC(=O)[C@H](CCCCNC(=O)COCCOCCNC(=O)COCCOCCNC(=O)CC[C@H](NC(=O)CCCCCCCCCCCCCCCCCCP(=O)(O)O)C(=O)O)NC(=O)[C@H](CCC(N)=O)NC(=O)[C@H](C)NC(=O)[C@@H](NC(=O)[C@H](CCCCN)NC(=O)[C@H](CC(=O)O)NC(=O)[C@H](CC(C)C)NC(=O)C(C)(C)NC(=O)[C@@H](NC(=O)[C@H](CO)NC(=O)[C@H](Cc1ccc(O)cc1)NC(=O)[C@H](CC(=O)O)NC(=O)[C@H](CO)NC(=O)[C@@H](NC(=O)[C@H](Cc1ccccc1)NC(=O)[C@@H](NC(=O)CNC(=O)[C@H](CCC(=O)O)NC(=O)C(C)(C)NC(=O)[C@@H](N)Cc1ccc(O)cc1)[C@@H](C)O)[C@@H](C)O)[C@@H](C)CC)C(C)C)C(C)C)C(=O)N[C@@H](CCCNC(=N)N)C(=O)NCC(=O)NCC(=O)N1CCC[C@H]1C(=O)N[C@@H](CO)C(=O)N[C@@H](CO)C(=O)NCC(=O)N[C@@H](C)C(=O)N1CCC[C@H]1C(=O)N1CCC[C@H]1C(=O)N1CCC[C@H]1C(=O)N[C@@H](CO)C(N)=O [Compound 25] (H-Y[Aib]EGTFTSDYSI[Aib]LDKVAQK([AEEA-AEEA-γGlu-Nonadecanoyl(19-PO3H2)])AFVQWLIRGGPSSGAPPPS-NH2) | – | – | – | – | – | – | – | 287 µg·h/mL | 272 µg·h/mL | 1570 ng/mL | 24 h | 117 h
4 | CC[C@H](C)[C@H](NC(=O)[C@H](CC(C)C)NC(=O)[C@H](Cc1c[nH]c2ccccc12)NC(=O)[C@H](CCC(N)=O)NC(=O)[C@@H](NC(=O)[C@H](Cc1ccccc1)NC(=O)[C@H](C)NC(=O)[C@H](CCCCNC(=O)COCCOCCNC(=O)COCCOCCNC(=O)CC[C@H](NC(=O)CCCCCCCCCCCCCCCCCCC(=O)O)C(=O)O)NC(=O)[C@H](CCC(N)=O)NC(=O)[C@H](C)NC(=O)[C@@H](NC(=O)[C@H](CCCCN)NC(=O)[C@H](CC(=O)O)NC(=O)[C@H](CC(C)C)NC(=O)C(C)(C)NC(=O)[C@@H](NC(=O)[C@H](CO)NC(=O)[C@H](Cc1ccc(O)cc1)NC(=O)[C@H](CC(=O)O)NC(=O)[C@H](CO)NC(=O)[C@@H](NC(=O)[C@H](Cc1ccccc1)NC(=O)[C@@H](NC(=O)CNC(=O)[C@H](CCC(=O)O)NC(=O)C(C)(C)NC(=O)[C@@H](N)Cc1ccc(O)cc1)[C@@H](C)O)[C@@H](C)O)[C@@H](C)CC)[C@@H](C)CC)C(C)C)C(=O)N[C@@H](C)C(=O)NCC(=O)NCC(=O)N1CCC[C@H]1C(=O)N[C@@H](CO)C(=O)N[C@@H](CO)C(=O)NCC(=O)N[C@@H](C)C(=O)N1CCC[C@H]1C(=O)N1CCC[C@H]1C(=O)N1CCC[C@H]1C(=O)N[C@@H](CO)C(N)=O [TRZ, Tirzepatide, reference compound] | 242 µg·h/mL | 237 µg·h/mL | 2250 ng/mL | 40 h | 57.1 h | – | – | – | – | – | – | –
